# Results as given in patent publication US20060129385A1, “Cholinergic therapy for individuals with learning disabilities” (priority 2002, published 2006).
# Legend:
# [1] = system: individuals with Down's Syndrome; assay: Test of Problem Solving (TOPS), 24 week open study of donepezil; type: in vivo, human
# Procedure: (§1) In the current study, we specifically examined the effects of donepezil and tested the hypothesis that expressive language performance in individuals with Down's Syndrome would improve with donepezil treatment. Language performance was measured with two objective measures, the Test of Problem Solving [Zachman et al., 1984] and the Clinical Evaluation of Language Fundamentals-Revised [Semel et al., 1986].
# Measures: The Test of Problem Solving [TOPS: Zachman et al., 1984]: The TOPS is an expressive language test that measures the ability to verbally identify reasonable solutions to problems presented via pictures. It has been used to assess pragmatic language ability in patients with AD. [Ripich et al., 1997]. The TOPS consists of 15 pictured scenarios with accompanying questions about each picture. The standard set of questions is designed to have the subject make inferences, to determine causes of particular events, to determine solutions to pictured problems, and to determine strategies for avoiding problems. The instrument was standardized on 1578 individuals (ages 6 years-0 months to 11 years-11 months). Age equivalent scores are provided for ages 3 years-5 months to 15 years-9 months. Validity and reliability data are available. TOPS raw scores for the overall [test as recommended by Powell, 1993] were determined by the average of two independent observers, one scoring onsite and a second scoring from audiotaped recordings of the test sessions.
# (§2) Derivation of Language Level: Due to the absence of appropriate standardized measures for adults with DS, relative language level was determined by comparing subtest performance (raw scores) to the average performance level for five-year-olds. The five year-old level was selected because it is the lowest age level in which both tests provide normative data. For this study, TOPS performance was based on age equivalent scores.
# (§3) Clinical Significance of Change: The clinical significance of the change in language performance following treatment was determined by comparing the difference in subject performance (between Baseline and treatment) to the amount of language improvement shown in one year by the average 5-year-old. For the TOPS, this index was the difference between the age equivalent score for children aged 5 years-0 months and the age equivalent score for children aged 6 years-0 months. For the CELF-R subtests, this index was difference between the mean raw scores for 5 year-olds and 6-year-olds.
# Statistical Analyses: The main comparisons were changes from Baseline (week 0) assessed by repeated measures. […] Similarly, while we hypothesized an improvement in expressive language, the acceptable p-value was not adjusted to reflect a one-tailed analysis. P-values at or below 0.05 were viewed as significant. Changes on standardized measures were viewed as clinically significant if the magnitude of the observed change was substantial in comparison to the level of performance gain typically achieved by children in the 12 month period between age 5 and age 6. Across all measures, the performance gain between age 5 and age 6 is the highest rate of language gain recorded for any 12-month period.
# [2] = system: individuals with Down's Syndrome; assay: Clinical Evaluation of Language Fundamentals-Revised (CELF-R), 24 week open study of donepezil; type: in vivo, human
# Procedure: as §1
# The Clinical Evaluation of Language Fundamentals-Revised (CELF-R: Semel et al., 1986]: The CELF-R is a diagnostic language test designed to assess language form and content, aspects of language generally regarded as fundamental to effective, oral—communication. Standardized expressive, receptive and overall language scores are derived from the summation of individual subtest scores. Typically, overall expressive and receptive language are evaluated by collapsing the subtest performance into a single receptive: or expressive language score. Individual subtest performance is analyzed for specific impairment within the broader expressive and receptive language domains. The instrument was standardized on 2,333 individuals (ages 5-0 to 16-11). Validity and reliability norms are available and adequate for each subtest.
# as §2, §3
# Statistical Analyses: The main comparisons were changes from Baseline (week 0) assessed by repeated measures. […] Similarly, while we hypothesized an improvement in expressive language, the acceptable p-value was not adjusted to reflect a one-tailed analysis. P-values at or below 0.05 were viewed as significant. […] Across all measures, the performance gain between age 5 and age 6 is the highest rate of language gain recorded for any 12-month period.
# [3] = system: individuals with Down's Syndrome
# Procedure: Subjects: After obtaining IRB approval and written informed consent, 5 males and […] with DS (confirmed by karyotyping), between the ages of 20-41 years (mean age=29 years), were enrolled in the trial. All subjects were verbal, able to hear speech at conversational level, and able to ingest oral medication. […] All individuals were evaluated for thyroid disorders and for Vitamin B 12 deficiency within 6 months of entry into the trial. […] Subject IQs ranged from 40 to 60 (mean IQ=52). The IQs of four subjects were determined during the baseline visit because testing had not been performed in the last 10 years. The IQ's of the two youngest subjects were determined from school records.
# Study Design: This was a 24 week open study at the General Clinical Outpatient Research Unit at Duke University in which subjects attended three sessions, Week 0 (Baseline), Week 12 (Treatment-12), and Week 24 (Termination). Due to scheduling limitations, the average first post-treatment visit was at Week 13 and the second post-treatment visit was at Week 25. A physical exam and language testing were completed at all sessions. A checklist for medication related adverse events was performed at Week 12 and at study termination. At the completion of the Baseline visit, donepezil was dosed orally at 5 mg once daily for 6 weeks. The dose was increased to 10 mg (two 5 mg tablets) daily for the remaining weeks if the 5 mg dose was well tolerated. This dosage schedule was based on experience from a previous trial [Kishnani et al 1999] and the donepezil package insert. Patients were monitored closely for safety and tolerability of the medication by regular phone calls in between scheduled visits. Two language measures were used, the Test of Problem Solving (TOPS) and the Clinical Evaluation of Language Fundamentals-Revised (CELF-R). The TOPS was completed at Baseline and at Weeks 12 and 24 of treatment. The CELF-R was completed at Baseline and at Week 24.
# DS patients = conditions: human, in vivo; cited from earlier work
structure (smiles),measurement,setting,value
COc1cc2c(cc1OC)C(=O)C(CC1CCN(Cc3ccccc3)CC1)C2 (stereo not shown) [donepezil],"change in TOPS performance, Treatment-12 weeks vs. Termination","[1]; after 12 additional weeks of treatment (24 weeks), paired samples t=0.52, p=0.6313",No change
same,overall TOPS performance gain,"[1]; after 12 weeks of treatment vs Baseline, oral 5 mg once daily for 6 weeks, then 10 mg daily, adults with DS, paired t=4.5, p=0.0107",6.5
same,overall TOPS performance gain,"[1]; after 24 weeks of treatment (Termination) vs Baseline, oral 5 mg then 10 mg daily, paired t=1.10, p=0.0513",5.1
same,clinical significance: overall TOPS performance gain relative to gain expected by the average five-year-old in one year of development,[1]; after treatment,more than one-half
same,"performance on the TOPS, Baseline vs. Treatment-12 weeks","[1]; following 12 weeks of treatment, paired samples t=4.5, p=0.0107",significantly improved performance
same,CELF-R subtests showing gains,"[2]; following 24 weeks of donepezil treatment, n=5",5 of 6
same,significance of CELF-R subtest differences from baseline levels,"[2]; following 24 weeks of treatment, p=0.15-0.23 in three expressive subtests and Word Classes",None of the differences was significantly different
same,"gain in language performance on the CELF-R subtests, High Language Group","[2]; individuals with higher language skills at Baseline, n=2, following treatment",large gains
same,"gain on the CELF-R language measures, Low Language Group","[2]; individuals with lower language skills at Baseline, n=3, following treatment",little gain
same,subjects with mild cases of diarrhea,"[3]; at the 5 mg dosage, each case improved spontaneously",Five of six subjects
same,subjects reporting a transient decrease in appetite,"[3]; on the 10 mg dosage, six subjects",one subject
same,subjects reporting cramps for one day,[3]; six subjects,One subject
same,adverse effect reported in DS patients,DS patients,urinary incontinence
